The text below walks through data of patent publication US11530223B2, “Spiro-lactam NMDA receptor modulators and uses thereof” (Aptinyx Inc., priority 2016, dated 2022).

Where two headings read alike, the source gives them in different places.

One data set relates to rats. Briefly: positive emotional learning (PEL) test, 50-kHz ultrasonic vocalizations. It is filed as in vivo. Particulars: rat, PO, one hour after administration. The method, then: Experiments were conducted as described in Burgdorf et al., “The effect of selective breeding for differential rates of 50-kHz ultrasonic vocalizations on emotional behavior in rats,” Devel. Psychobiol., 51:34-46 (2009). Rat 50-kHz ultrasonic vocalization (hedonic USVs) is a validated model for the study of positive affective state and is best elicited by rough-and-tumble play.
The PEL assay measures the acquisition of positive (hedonic) 50-kHz ultrasonic vocalizations (USVs) to a social stimulus, heterospecific rough and tumble play stimulation. Heterospecific rough-and-tumble play stimulation was administered by the experimenter's right hand. One hour after administration of test compound or vehicle negative control (0.5% sodium carboxymethyl cellulose in 0.9% sterile saline vehicle), animals received 3 min of heterospecific rough-and-tumble play that consisted of alternating 15 sec blocks of heterospecific play and 15 sec of no-stimulation. High frequency ultrasonic vocalizations (USVs) were recorded and analyzed by sonogram with Avasoft SASlab Pro (Germany) as previously described by Burgdorf et al., “Positive emotional learning is regulated in the medial prefrontal cortex by GluN2B-containing NMDA receptors,” Neuroscience, 192:515-523 (2011). Frequency modulated 50-kHz USVs that occurred during each of the no-stimulation periods were quantified to measure PEL. Animals were not habituated to play stimulation before testing. Positive emotional learning was measured during the conditioned stimulus (CS) trials preceding the tickle unconditioned stimulus (UCS) trials. Animals received 15 second trials consisting of 6 CS and 6 UCS trials each (3 min total).
The table below summarizes the findings. As each experiment includes its own vehicle group, an example (typical) vehicle score is shown. Max effect (mean number of 50 kHz USVs per 15 seconds) is reported as ^: <6.0; *: 6.0-7.6; **: 7.7-10; ***:10.1-20

Another data set deals with T1, NMDAR2A (Homo sapiens, UniProt Q12879).
T1 construct: expressed in transfected cells; host or cells: HEK cells (membrane extract)
The data set is described as follows: [3H]MK-801 binding in NMDAR2A expressing HEK cell membranes. The data set is classed as biochemical. As to conditions: 50 μM glutamate; for EC50: read-out: B: log EC50 (converted). Put shortly:
(§1)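 HEK membranes (300 μg protein) expressing one NMDAR2 subtype preincubated 15 min at 25 °C with 50 μM glutamate and compound (1×10^−15–1×10^−7 M), then 15 min with [3H]MK-801 (nonequilibrium), filtered. Baseline-subtracted binding expressed as % of 1 mM glycine; EC50 and % maximal from three-parameter fit.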

The target of another data set is T2, NMDAR2B (Homo sapiens, UniProt Q13224).
T2 construct: expressed in transfected cells; host or cells: HEK cells (membrane extract)
The data set is described as follows: [3H]MK-801 binding in NMDAR2B expressing HEK cell membranes. The data set is classed as biochemical. As to conditions: 50 μM glutamate; for EC50: read-out: B: log EC50 (converted). Put shortly:
as §1

The target in a further data set is T3, NMDAR2C (Homo sapiens, UniProt Q14957).
T3 construct: expressed in transfected cells; host or cells: HEK cells (membrane extract)
Briefly: [3H]MK-801 binding in NMDAR2C expressing HEK cell membranes. The data set is classed as biochemical. Particulars: second part of table (r25-r35); c2, taken as NMDAR2C; read-out: B: log EC50 (converted). As to the method:
Assays were conducted as described by Moskal et al., “GLYX-13: a monoclonal antibody-derived peptide that acts as an N-methyl-D-aspartate receptor modulator,” Neuropharmacology, 49, 1077-87, 2005. These studies were designed to determine if the test compounds act to facilitate NMDAR activation in NMDAR2A, NMDAR2B, NMDAR2C or NMDAR2D expressing HEK cell membranes as measured by increases in [^3H]MK-801 binding.
In the assay, 300 μg of NMDAR expressing HEK cell membrane extract protein was preincubated for 15 minutes at 25° C. in the presence of saturating concentrations of glutamate (50 μM) and varying concentrations of test compound (1×10^−15M−1×10^−7M), or 1 mM glycine. Following the addition of 0.3 μCi of [^3H]MK-801 (22.5 Ci/mmol), reactions were again incubated for 15 minutes at 25° C. (nonequilibrium conditions). Bound and free [^3H]MK-801 were separated via rapid filtration using a Brandel apparatus.
In analyzing the data, the DPM (disintegrations per minute) of [^3H]MK-801 remaining on the filter were measured for each concentration of test compound or for 1 mM glycine. The DPM values for each concentration of a ligand (N=2) were averaged. The baseline value was determined from the best fit curve of the DPM values modeled using the GraphPad program and the log(agonist) vs. response (three parameters) algorithm was then subtracted from all points in the dataset. The % maximal [^3H]MK-801 binding was then calculated relative to that of 1 mM glycine: all baseline subtracted DPM values were divided by the average value for 1 mM glycine. The EC50 and % maximal activity were then obtained from the best fit curve of the % maximal [^3H]MK-801 binding data modelled using the GraphPad program and the log(agonist) vs. response (three parameters) algorithm. […]

Data set [1] has as its target T4, NMDAR2D (Homo sapiens, UniProt O15399).
T4 construct: expressed in transfected cells; host or cells: HEK cells (membrane extract)
The data set is described as follows: [3H]MK-801 binding in NMDAR2D expressing HEK cell membranes. Details: key to B: log EC50: 0=−; ≥1×10^−9 M (e.g., −8)=+; <1×10^−9 M (e.g., −10)=++. The data set is classed as biochemical. In outline:
as §1

A short description of another data set: IV pharmacokinetics. It is filed as in vivo. As to conditions: Sprague Dawley rats; for C0: normal saline (first four compounds: 5% NMP, 5% Solutol HS, 90% normal saline); for Vd: read-out: Vss. The method, then: Sprague Dawley rats were dosed intravenously using a normal saline formulation containing 2 mg/kg of the compounds identified in the below table (except for the first four compounds that were delivered in 5% NMP, 5% Solutol® HS and 90% normal saline formulation). The table below summarizes the results of the IV pharmacokinetics.

The nature of data set [2]: oral pharmacokinetics (plasma, brain, CSF). It is filed as in vivo. As to conditions: Sprague Dawley rats, per os 10 mg/kg; for Tmax: normal saline (first four compounds: 5% NMP, 5% Solutol HS, 90% normal saline).
Experimental: Plasma, brain, and CSF samples were analyzed at various time points over a 24 hour period.
Data set [3] concerns the target T5, NMDAR2D (Homo sapiens, UniProt O15399+Q05586).
T5 construct: expressed in transfected cells; host or cells: HEK cells (membrane extract)
Briefly: [3H]MK-801 binding in NMDAR2D expressing HEK cell membranes. The data set is classed as biochemical. Also on record: key to B: log EC50: 0=−; ≥1×10^−9 M (e.g., −8)=+; <1×10^−9 M (e.g., −10)=++. As to conditions: for EC50: second part of table (r25-r35), c4, taken as NMDAR2D, read-out: B: log EC50 (converted); for Emax: second part of table, c3, taken as NMDAR2D, read-out: A: % maximal [3H]MK-801 binding relative to 1 mM glycine. Put shortly:
as §1

A further data set concerns Sprague Dawley rats. Briefly: Porsolt forced swim test. Particulars: 0.1 mg/kg; for % reduction in float time: relative to vehicle group. It is filed as in vivo.
Where [4] appears, read: Sprague Dawley, rat, in vivo, iv, 2 mg/kg.
The mark [5] stands for this setting: Sprague Dawley, rat, in vivo, iv, 2 mg/kg, read-out: C0.
Where [6] appears, read: Sprague Dawley, rat, plasma, po, 10 mg/kg.
Where [7] appears, read: Sprague Dawley, rat, plasma, po, 10 mg/kg, plasma, read-out: Cmax.
Where [8] appears, read: rat, plasma, po, read-out: Tmax.

T1 sequence (Q12879 23-1464, species assumed, other chains not shown): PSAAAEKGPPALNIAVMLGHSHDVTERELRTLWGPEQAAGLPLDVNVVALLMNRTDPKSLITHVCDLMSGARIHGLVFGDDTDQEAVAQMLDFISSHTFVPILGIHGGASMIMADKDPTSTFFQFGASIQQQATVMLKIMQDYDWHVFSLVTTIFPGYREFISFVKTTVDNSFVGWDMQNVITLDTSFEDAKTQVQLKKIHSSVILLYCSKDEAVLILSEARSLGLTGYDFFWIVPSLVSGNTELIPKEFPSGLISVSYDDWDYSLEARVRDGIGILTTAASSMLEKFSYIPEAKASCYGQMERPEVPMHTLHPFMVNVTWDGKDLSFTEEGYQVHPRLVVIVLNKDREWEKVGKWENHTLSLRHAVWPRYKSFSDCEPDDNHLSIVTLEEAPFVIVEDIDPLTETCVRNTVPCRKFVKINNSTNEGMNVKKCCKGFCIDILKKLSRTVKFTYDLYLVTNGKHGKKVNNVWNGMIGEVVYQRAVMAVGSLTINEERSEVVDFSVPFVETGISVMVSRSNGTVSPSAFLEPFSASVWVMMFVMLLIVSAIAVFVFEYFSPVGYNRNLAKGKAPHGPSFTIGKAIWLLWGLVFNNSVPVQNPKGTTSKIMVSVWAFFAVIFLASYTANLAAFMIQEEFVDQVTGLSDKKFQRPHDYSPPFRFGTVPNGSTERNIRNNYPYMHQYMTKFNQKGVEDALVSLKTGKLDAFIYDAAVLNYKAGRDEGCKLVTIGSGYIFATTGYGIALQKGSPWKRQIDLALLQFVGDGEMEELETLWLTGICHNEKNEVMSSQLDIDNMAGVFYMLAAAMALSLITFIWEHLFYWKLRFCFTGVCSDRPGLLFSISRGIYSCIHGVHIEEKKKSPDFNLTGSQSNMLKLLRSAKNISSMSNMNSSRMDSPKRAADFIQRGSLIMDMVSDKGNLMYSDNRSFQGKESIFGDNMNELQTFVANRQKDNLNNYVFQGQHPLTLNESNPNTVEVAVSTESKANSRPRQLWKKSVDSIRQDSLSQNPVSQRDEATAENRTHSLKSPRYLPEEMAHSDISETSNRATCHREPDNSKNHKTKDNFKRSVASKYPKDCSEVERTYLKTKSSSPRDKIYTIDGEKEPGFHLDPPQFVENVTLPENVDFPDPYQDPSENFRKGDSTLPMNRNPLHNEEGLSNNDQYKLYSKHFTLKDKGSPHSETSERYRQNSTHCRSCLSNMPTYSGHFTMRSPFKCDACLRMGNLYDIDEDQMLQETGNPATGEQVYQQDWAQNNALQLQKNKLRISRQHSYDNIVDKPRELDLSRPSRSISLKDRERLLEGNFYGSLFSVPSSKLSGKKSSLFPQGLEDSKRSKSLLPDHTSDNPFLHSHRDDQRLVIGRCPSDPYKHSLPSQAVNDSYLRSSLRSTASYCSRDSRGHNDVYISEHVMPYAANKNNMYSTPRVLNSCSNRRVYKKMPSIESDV
T2 sequence (Q13224 27-1484, species assumed, other chains not shown): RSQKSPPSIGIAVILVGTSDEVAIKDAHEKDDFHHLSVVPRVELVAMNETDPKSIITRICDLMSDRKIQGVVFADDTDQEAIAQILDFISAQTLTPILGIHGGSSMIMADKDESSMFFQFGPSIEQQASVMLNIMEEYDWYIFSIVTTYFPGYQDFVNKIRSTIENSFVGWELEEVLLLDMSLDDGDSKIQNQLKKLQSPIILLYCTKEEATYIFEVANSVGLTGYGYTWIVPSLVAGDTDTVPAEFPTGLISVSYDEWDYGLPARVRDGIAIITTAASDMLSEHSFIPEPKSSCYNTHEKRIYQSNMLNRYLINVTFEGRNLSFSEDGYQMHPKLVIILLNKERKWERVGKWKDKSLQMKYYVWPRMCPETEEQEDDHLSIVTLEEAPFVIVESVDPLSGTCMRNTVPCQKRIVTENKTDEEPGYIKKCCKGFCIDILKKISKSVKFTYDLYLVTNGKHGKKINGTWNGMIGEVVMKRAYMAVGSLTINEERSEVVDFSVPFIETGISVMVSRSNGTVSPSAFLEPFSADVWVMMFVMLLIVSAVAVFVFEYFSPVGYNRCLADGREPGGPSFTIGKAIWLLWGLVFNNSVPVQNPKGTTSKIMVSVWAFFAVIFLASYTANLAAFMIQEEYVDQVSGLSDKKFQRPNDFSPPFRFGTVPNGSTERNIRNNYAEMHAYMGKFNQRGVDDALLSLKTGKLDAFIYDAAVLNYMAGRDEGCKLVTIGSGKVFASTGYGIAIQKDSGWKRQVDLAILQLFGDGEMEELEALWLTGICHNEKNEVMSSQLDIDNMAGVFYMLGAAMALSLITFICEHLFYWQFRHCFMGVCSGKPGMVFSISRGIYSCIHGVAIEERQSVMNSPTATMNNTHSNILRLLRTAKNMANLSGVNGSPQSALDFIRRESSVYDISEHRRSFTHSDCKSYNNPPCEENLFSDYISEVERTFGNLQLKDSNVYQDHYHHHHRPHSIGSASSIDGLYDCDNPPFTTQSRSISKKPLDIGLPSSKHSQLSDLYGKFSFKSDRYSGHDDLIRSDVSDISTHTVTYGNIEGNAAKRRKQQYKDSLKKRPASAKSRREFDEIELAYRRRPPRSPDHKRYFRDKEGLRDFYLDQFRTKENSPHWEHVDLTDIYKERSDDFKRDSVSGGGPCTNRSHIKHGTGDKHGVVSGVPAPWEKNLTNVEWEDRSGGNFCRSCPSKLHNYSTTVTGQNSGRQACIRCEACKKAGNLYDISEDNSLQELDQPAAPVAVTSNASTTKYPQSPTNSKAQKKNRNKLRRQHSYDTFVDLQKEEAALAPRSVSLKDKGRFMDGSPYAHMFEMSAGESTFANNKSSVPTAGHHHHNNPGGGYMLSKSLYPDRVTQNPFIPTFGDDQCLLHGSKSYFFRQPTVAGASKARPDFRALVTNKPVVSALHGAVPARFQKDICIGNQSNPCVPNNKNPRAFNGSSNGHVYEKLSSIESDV
T3 sequence (Q14957 20-1233, species assumed, other chains not shown): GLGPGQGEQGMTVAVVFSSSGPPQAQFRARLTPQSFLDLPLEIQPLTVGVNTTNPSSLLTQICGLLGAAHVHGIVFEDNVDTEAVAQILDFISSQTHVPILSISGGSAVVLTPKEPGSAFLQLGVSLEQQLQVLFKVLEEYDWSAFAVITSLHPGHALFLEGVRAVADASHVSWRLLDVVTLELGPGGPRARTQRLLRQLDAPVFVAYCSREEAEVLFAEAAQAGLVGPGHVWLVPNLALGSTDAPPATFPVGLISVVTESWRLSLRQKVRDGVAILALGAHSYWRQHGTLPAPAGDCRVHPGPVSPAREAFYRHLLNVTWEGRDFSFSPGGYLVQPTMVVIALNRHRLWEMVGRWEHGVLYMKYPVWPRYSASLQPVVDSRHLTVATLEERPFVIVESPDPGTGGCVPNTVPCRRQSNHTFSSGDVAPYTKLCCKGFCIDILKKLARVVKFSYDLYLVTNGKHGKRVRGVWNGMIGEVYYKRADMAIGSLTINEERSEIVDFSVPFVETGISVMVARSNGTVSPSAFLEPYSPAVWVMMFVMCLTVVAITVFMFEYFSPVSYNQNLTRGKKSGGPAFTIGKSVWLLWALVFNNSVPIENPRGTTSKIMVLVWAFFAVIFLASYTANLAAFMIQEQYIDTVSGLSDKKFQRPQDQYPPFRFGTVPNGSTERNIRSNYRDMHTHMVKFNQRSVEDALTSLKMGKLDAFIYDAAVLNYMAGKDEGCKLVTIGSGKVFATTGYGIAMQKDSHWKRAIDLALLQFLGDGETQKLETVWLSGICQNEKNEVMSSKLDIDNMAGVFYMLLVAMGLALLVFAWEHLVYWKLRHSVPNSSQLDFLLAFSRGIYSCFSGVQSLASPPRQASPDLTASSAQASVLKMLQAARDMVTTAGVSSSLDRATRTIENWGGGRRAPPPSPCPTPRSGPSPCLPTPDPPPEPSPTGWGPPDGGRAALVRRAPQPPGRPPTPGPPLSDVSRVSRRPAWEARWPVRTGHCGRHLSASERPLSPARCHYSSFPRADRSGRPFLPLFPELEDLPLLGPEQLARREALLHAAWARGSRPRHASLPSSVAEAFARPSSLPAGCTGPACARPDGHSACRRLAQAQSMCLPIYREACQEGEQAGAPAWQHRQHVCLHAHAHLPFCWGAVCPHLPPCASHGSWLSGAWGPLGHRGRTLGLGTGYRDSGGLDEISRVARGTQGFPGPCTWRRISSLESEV

`CC(C)(C)OC(=O)N1CCCC2(CCNC2=O)C1` (single isomer, unassigned) [RA-1, tert-butyl 1-oxo-2,7-diazaspiro[4.5]decane-7-carboxylate]: in the data set on rats (dose 0.1 mg/kg), the “Max Effect (mean number of 50 kHz USVs per 15 seconds)” value is reported as “*** (***:10.1-20)”. For the same molecule, at NMDAR2A, the “A: % maximal [3H]MK-801 binding relative to 1 mM glycine” value was “+ (<100%=+)” and the EC50 is at least 1 nM. In addition, at NMDAR2B, the “A: % maximal [3H]MK-801 binding relative to 1 mM glycine” value is “+ (<100%=+)” and the EC50 is under 1 nM. The concentration for a half-maximal effect (EC50) on NMDAR2C is under 1 nM. For the same molecule, the “A: % maximal [3H]MK-801 binding relative to 1 mM glycine” value on NMDAR2D [1] (second part of table (r25-r35), c3, taken as NMDAR2D) was “− (−=0)”. The “B: log EC50” value on NMDAR2D [1] (second part of table, c4, taken as NMDAR2D) was “−”. In “IV pharmacokinetics” (intravenous 2 mg/kg), the AUClast worked out at 234.08 ng·h/mL, the T1/2 came out at 11.4 min, the Vss worked out at 1.69 L/kg and the C0 was 1247.08 ng/mL. Also, in data set [2], the “% F” value is reported as 28%, the AUClast was 324.2 ng·h/mL, the “CSF Cmax” value is 102.5 ng/mL and the “Brain Cmax” value was determined as 203.6 ng/mL. For the same molecule, the Tmax in [2] was 15 min. Also, the Cmax in [2] (plasma) is 592 ng/mL.

With `CC(C)(C)OC(=O)N1CCCC12CCNC2=O` (single isomer, unassigned) [RM-1, tert-butyl 6-oxo-1,7-diazaspiro[4.4]nonane-1-carboxylate], the “Max Effect (mean number of 50 kHz USVs per 15 seconds)” value with rats (dose .001-1 mg/kg) is “*** (***:10.1-20)”. Besides, at NMDAR2A, the “A: % maximal [3H]MK-801 binding relative to 1 mM glycine” value is “+ (<100%=+)” and the EC50 is under 1 nM. Besides, on NMDAR2B, the “A: % maximal [3H]MK-801 binding relative to 1 mM glycine” value was “++ (>100%=++)” and the EC50 is under 1 nM. In addition, the EC50 on NMDAR2C is under 1 nM. At NMDAR2D [3], the EC50 was under 1 nM and the Emax was under 100%. In addition, in “IV pharmacokinetics” (setting [4]), the AUC(0-t) is 1330 ng·h/mL, the clearance came out at 24.9 mL/min/kg, the half-life is 29.4 min and the Vd was 0.91 L/kg. In addition, the C0 in “IV pharmacokinetics” (setting [5]) was found to be 2010 ng/mL. Further, in [2], the “CSF Cmax” value was 1415 ng/mL and the “Brain Cmax” value was found to be 2763 ng/mL. In data set [2] (setting [6]), the AUC(0-t) came to 5010 ng·h/mL and the bioavailability was determined as 75%. For the same molecule, the Cmax in [2] (setting [7]) was 4310 ng/mL. The Tmax in data set [2] (setting [8]) was 15 min.

`CC(C)C(=O)N1CCCC12CCNC2=O` (centres unmarked) [RZ-405]: at NMDAR2A, the “A: % maximal [3H]MK-801 binding relative to 1 mM glycine” value is on record as “+ (<100%=+)” and the EC50 is under 1 nM. The Emax at NMDAR2B (read-out: A: % maximal [3H]MK-801 binding relative to 1 mM glycine) is over 100%. Also, on NMDAR2B, the EC50 was at least 1 nM. Further, the EC50 on NMDAR2C is under 1 nM. For the same molecule, at NMDAR2D [3], the EC50 is under 1 nM and the Emax was under 100%. Besides, in the data set “IV pharmacokinetics” (setting [4]), the AUC(0-t) worked out at 7010 ng·h/mL, the clearance came out at 4.74 mL/min/kg, the half-life is 243 min and the Vd was found to be 0.69 L/kg. For the same molecule, the C0 in “IV pharmacokinetics” (setting [5]) was 3040 ng/mL. Also, in data set [2], the “CSF Cmax” value was 3157 ng/mL and the “Brain Cmax” value was 2209 ng/mL. In [2] (setting [6]), this molecule showed an AUC(0-t) of 29500 ng·h/mL and a bioavailability of 84%. The Cmax in [2] (setting [7]) was determined as 10800 ng/mL. The Tmax in [2] (setting [8]) came out at 30 min. Also, the Significance vs. vehicle result with Sprague Dawley rats (1 h post-dose, floating time in 5 min test) is given as “Yes (statistically significant (p<=0.05) from vehicle at dose level shown)”. Besides, in the data set on Sprague Dawley rats (1 h post-dose), the “% reduction in float time” value stood at 78.9%. For the same molecule, in the data set with Sprague Dawley rats (24 h post-dose), the Significance vs. vehicle entry was “Yes (statistically significant (p<=0.05) from vehicle at dose level shown)” and the “% reduction in float time” value was found to be 42.7%.
